The results in this text go back to article PMC12172042, “Metabolic Activation versus Masked Prodrugs: Bisubstrate Mimic Inhibitors of CoaBC’s PPCS Activity in Mycobacterium tuberculosis and Staphylococcus aureus” (ACS Infectious Diseases, 2025).

The target in one series is T1, SaCoaBC (Staphylococcus aureus, UniProt Q2G268).
T1 construct: gene coaBC
Put plainly: coupled pyrophosphate assay with Morrison tight-binding fit; formed in situ from P-CJ and CTP; CD melting shift ~[…] °C. It counts as biochemical.

The target in another series is T2, MtCoaBC (Mycobacterium tuberculosis, UniProt P9WNZ1).
T2 construct: gene coaBC
T2 sequence (P9WNZ1 whole entry): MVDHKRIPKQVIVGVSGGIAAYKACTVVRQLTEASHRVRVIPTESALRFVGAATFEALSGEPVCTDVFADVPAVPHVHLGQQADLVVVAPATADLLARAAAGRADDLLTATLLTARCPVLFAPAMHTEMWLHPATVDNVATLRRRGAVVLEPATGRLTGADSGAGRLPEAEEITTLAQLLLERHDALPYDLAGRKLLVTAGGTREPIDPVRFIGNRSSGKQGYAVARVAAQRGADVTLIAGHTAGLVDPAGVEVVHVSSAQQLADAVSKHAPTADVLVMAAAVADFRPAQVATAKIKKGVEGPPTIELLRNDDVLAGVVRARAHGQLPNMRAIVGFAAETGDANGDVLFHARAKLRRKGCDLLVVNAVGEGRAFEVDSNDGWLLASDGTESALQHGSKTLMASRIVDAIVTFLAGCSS
Put plainly: coupled pyrophosphate assay with Morrison tight-binding fit; formed in situ from P-CJ and CTP; CD melting shift […] °C. The format is biochemical.

Series [1] concerns CC(C)(COP(=O)(O)O)[C@@H](O)C(=O)NCCC(=O)O. Briefly: purified protein. The following applies: CTP (MgCTP).

T1 sequence (Q2G268 entry or part of it): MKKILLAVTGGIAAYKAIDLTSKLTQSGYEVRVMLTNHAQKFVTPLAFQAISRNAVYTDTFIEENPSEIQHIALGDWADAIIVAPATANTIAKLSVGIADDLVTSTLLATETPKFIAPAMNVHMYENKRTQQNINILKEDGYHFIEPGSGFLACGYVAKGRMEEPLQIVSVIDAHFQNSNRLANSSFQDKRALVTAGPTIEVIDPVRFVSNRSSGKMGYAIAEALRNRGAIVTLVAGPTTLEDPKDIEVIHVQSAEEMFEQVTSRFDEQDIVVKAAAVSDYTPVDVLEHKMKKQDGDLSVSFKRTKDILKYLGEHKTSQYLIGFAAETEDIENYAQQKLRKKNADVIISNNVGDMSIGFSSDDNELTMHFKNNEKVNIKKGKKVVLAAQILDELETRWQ

In the case of `CC(C)(COP(=O)(O)O)[C@@H](O)C(=O)N/C=C/C(=O)OP(=O)(O)OC[C@H]1O[C@@H](n2ccc(N)nc2=O)[C@H](O)[C@@H]1O` [compound 11, P-CJ-CMP], the Ki at SaCoaBC worked out at 32.3 nM; on MtCoaBC it was 58.7 nM.
Take “MtCoaBC (Mycobacterium tuberculosis H37Rv)”: the Km in series [1] is 33.2 ± 4.2 µM.

As usually defined, the Ki is a dissociation constant, usually derived from enzyme kinetics or from competition with a known ligand. The term Km denotes the substrate concentration at which the rate is half of its maximum.
